# Source: patent publication US20240262819A1, “NOVEL COMPOUNDS HAVING INHIBITORY ACTIVITY AGAINST GLUCOSYLCERAMIDE SYNTHASE OR PHARMACEUTICALLY ACCEPTABLE SALT THEREOF, PROCESSES FOR PREPARING THE SAME, AND PHARMACEUTICAL COMPOSITIONS COMPRISING THE SAME” (YUHAN CORPORATION, priority 2021, published 2024)
# Like-named read-outs stand apart in the source and are kept apart here.
# Test system: GM1 production in Jurkat cells
# Assay: cells
# Assay type: cell-based
SMILES,"IC50 (Homo sapiens, Jurkat, 72 h)",IC50 (read-out: IC50)
"CCOc1ccc(-c2ccc3c(c2)CC(C)(C)[C@H]3NC(=O)O[C@@H]2CN3CCC2CC3)cc1 [Example 7, (S)-quinuclidin-3-yl((R)-5-(4-ethoxyphenyl)-2,2-dimethyl-2,3-dihydro-1H-inden-1-yl)carbamate]",13.7 nM,
"CCOc1c(C)cc(-c2cc3c(cc2F)[C@H](NC(=O)O[C@@H]2CN4CCC2CC4)C(C)(C)C3)cc1C [Example 80, (S)-quinuclidin-3-yl((R)-5-(4-ethoxy-3,5-dimethylphenyl)-6-fluoro-2,2-dimethyl-2,3-dihydro-1H-inden-1-yl)carbamate]",51 nM,
"CCCCOc1ccc(-c2cc3c(cc2F)[C@H](NC(=O)O[C@@H]2CN4CCC2CC4)C(C)(C)C3)cc1 [Example 70, (S)-quinuclidin-3-yl((R)-5-(4-butoxyphenyl)-6-fluoro-2,2-dimethyl-2,3-dihydro-1H-inden-1-yl)carbamate]",0.6 nM,
"CCCCOc1ccc(-c2ccc3c(c2)CC(C)(C)[C@H]3NC(=O)O[C@@H]2CN3CCC2CC3)cc1Cl [Example 17, (S)-quinuclidin-3-yl((R)-5-(4-butoxy-3-chlorophenyl)-2,2-dimethyl-2,3-dihydro-1H-inden-1-yl)carbamate]",20.6 nM,
"CC(C)Cc1cccc(-c2cc3c(cc2F)[C@H](NC(=O)O[C@@H]2CN4CCC2CC4)C(C)(C)C3)c1 [Example 74, (S)-quinuclidin-3-yl((R)-6-fluoro-5-(3-isobutylphenyl)-2,2-dimethyl-2,3-dihydro-1H-inden-1-yl)carbamate]",19.4 nM,
"CCOc1ccc(-c2cc3c(cc2F)[C@H](NC(=O)O[C@@H]2CN4CCC2CC4)C(C)(C)C3)cc1 [Example 56, (S)-quinuclidin-3-yl((R)-5-(4-ethoxyphenyl)-6-fluoro-2,2-dimethyl-2,3-dihydro-1H-inden-1-yl)carbamate]",10.7 nM,
"CC(C)c1cccc(-c2ccc3c(c2)CC(C)(C)[C@H]3NC(=O)O[C@@H]2CN3CCC2CC3)c1 [Example 2, (S)-quinuclidin-3-yl((R)-5-(3-isopropylphenyl)-2,2-dimethyl-2,3-dihydro-1H-inden-1-yl)carbamate]",3.75 nM,
"CCCCc1ccc(-c2ccc3c(c2)CC(C)(C)[C@H]3NC(=O)O[C@@H]2CN3CCC2CC3)cc1 [Example 3, (S)-quinuclidin-3-yl((R)-5-(4-butylphenyl)-2,2-dimethyl-2,3-dihydro-1H-inden-1-yl)carbamate]",1.24 nM,
"CC1(C)Cc2cc(-c3ccc(OCC4CC4)nc3)ccc2[C@@H]1NC(=O)O[C@@H]1CN2CCC1CC2 [Example 13, (S)-quinuclidin-3-yl((R)-5-(6-(cyclopropylmethoxy)pyridin-3-yl)-2,2-dimethyl-2,3-dihydro-1H-inden-1-yl)carbamate]",4.15 nM,
"CCOc1cccc(-c2cc3c(cc2F)[C@H](NC(=O)O[C@@H]2CN4CCC2CC4)C(C)(C)C3)c1 [Example 76, (S)-quinuclidin-3-yl((R)-5-(3-ethoxyphenyl)-6-fluoro-2,2-dimethyl-2,3-dihydro-1H-inden-1-yl)carbamate]",33.4 nM,
"COc1ccc(-c2ccc3c(c2)CC(C)(C)[C@H]3NC(=O)O[C@@H]2CN3CCC2CC3)c(F)c1 [Example 12, (S)-quinuclidin-3-yl((R)-5-(2-fluoro-4-methoxyphenyl)-2,2-dimethyl-2,3-dihydro-1H-inden-1-yl) carbamate]",,5.94 nM
"CC(C)COc1ccc(-c2ccc3c(c2)CC(C)(C)[C@H]3NC(=O)O[C@@H]2CN3CCC2CC3)cc1 [Example 8, (S)-quinuclidin-3-yl((R)-5-(4-isobutoxyphenyl)-2,2-dimethyl-2,3-dihydro-1H-inden-1-yl)carbamate]",1.09 nM,
"CCc1ccc(-c2cc3c(cc2F)[C@H](NC(=O)O[C@@H]2CN4CCC2CC4)C(C)(C)C3)cc1 [Example 58, (S)-quinuclidin-3-yl((R)-5-(4-ethylphenyl)-6-fluoro-2,2-dimethyl-2,3-dihydro-1H-inden-1-yl)carbamate]",5.74 nM,
"CC(C)c1cccc(-c2cc3c(cc2F)[C@H](NC(=O)O[C@@H]2CN4CCC2CC4)C(C)(C)C3)c1 [Example 73, (S)-quinuclidin-3-yl((R)-6-fluoro-5-(3-isopropylphenyl)-2,2-dimethyl-2,3-dihydro-1H-inden-1-yl)carbamate]",10.8 nM,
"CCc1cccc(-c2ccc3c(c2)CC(C)(C)[C@H]3NC(=O)O[C@@H]2CN3CCC2CC3)c1 [Example 1, (S)-quinuclidin-3-yl((R)-5-(3-ethylphenyl)-2,2-dimethyl-2,3-dihydro-1H-inden-1-yl)carbamate]",4.53 nM,
"CC(C)Oc1cccc(-c2cc3c(cc2F)[C@H](NC(=O)O[C@@H]2CN4CCC2CC4)C(C)(C)C3)c1 [Example 81, (S)-quinuclidin-3-yl((R)-6-fluoro-5-(3-isopropoxyphenyl)-2,2-dimethyl-2,3-dihydro-1H-inden-1-yl)carbamate]",18.7 nM,
"CC(C)Cc1ccc(-c2ccc3c(c2)CC(C)(C)[C@H]3NC(=O)O[C@@H]2CN3CCC2CC3)cc1 [Example 5, (S)-quinuclidin-3-yl((R)-5-(4-isobutylphenyl)-2,2-dimethyl-2,3-dihydro-1H-inden-1-yl)carbamate]",4.14 nM,
"CCOc1ccc(-c2ccc3c(c2)CC(C)(C)[C@H]3NC(=O)O[C@@H]2CN3CCC2CC3)cc1F [Example 19, (S)-quinuclidin-3-yl((R)-5-(4-ethoxy-3-fluorophenyl)-2,2-dimethyl-2,3-dihydro-1H-inden-1-yl)carbamate]",56 nM,
"CCCCOc1cccc(-c2cc3c(cc2F)[C@H](NC(=O)O[C@@H]2CN4CCC2CC4)C(C)(C)C3)c1 [Example 79, (S)-quinuclidin-3-yl((R)-5-(3-butoxyphenyl)-6-fluoro-2,2-dimethyl-2,3-dihydro-1H-inden-1-yl)carbamate]",6 nM,
"CC(C)(C)c1ccc(-c2ccc3c(c2)CC(C)(C)[C@H]3NC(=O)O[C@@H]2CN3CCC2CC3)cc1 [Example 6, (S)-quinuclidin-3-yl((R)-5-(4-(tert-butyl)phenyl)-2,2-dimethyl-2,3-dihydro-1H-inden-1-yl)carbamate]",9.97 nM,
"CCCCc1ccc(-c2cc3c(cc2F)[C@H](NC(=O)O[C@@H]2CN4CCC2CC4)C(C)(C)C3)cc1 [Example 60, (S)-quinuclidin-3-yl((R)-5-(4-butylphenyl)-6-fluoro-2,2-dimethyl-2,3-dihydro-1H-inden-1-yl)carbamate]",1 nM,
"CCc1cccc(-c2cc3c(cc2F)[C@H](NC(=O)O[C@@H]2CN4CCC2CC4)C(C)(C)C3)c1 [Example 71, (S)-quinuclidin-3-yl((R)-5-(3-ethylphenyl)-6-fluoro-2,2-dimethyl-2,3-dihydro-1H-inden-1-yl)carbamate]",12.7 nM,
"COc1cccc(-c2cc3c(cc2F)[C@H](NC(=O)O[C@@H]2CN4CCC2CC4)C(C)(C)C3)c1 [Example 75, (S)-quinuclidin-3-yl((R)-6-fluoro-5-(3-methoxyphenyl)-2,2-dimethyl-2,3-dihydro-1H-inden-1-yl)carbamate]",14.8 nM,
"CC(C)COc1cccc(-c2cc3c(cc2F)[C@H](NC(=O)O[C@@H]2CN4CCC2CC4)C(C)(C)C3)c1 [Example 78, (S)-quinuclidin-3-yl((R)-6-fluoro-5-(3-isobutoxyphenyl)-2,2-dimethyl-2,3-dihydro-1H-inden-1-yl)carbamate]",17.6 nM,
